Patent publication EP0344564A1, “Utilisation of special amines or hindering nitrosamine production” (Eisenbrand, Gerhard, Prof. Dr., priority 1988, dated 1989)

Experiment: Nitrosamine formation in aqueous amine / sodium nitrite mixture, comparison with THEDA (Beispiel 4)
Format: physicochemical
Conditions: 20 mM Amin, 20 mM Natriumnitrit, 4 Stunden, 37 °C, pH 4

% gebildetes Nitrosamin bezogen auf eingesetztes Amin: 1,0%
Structure (SMILES): CC(O)CN(CCN(CC(C)O)CC(C)O)CC(C)O (stereo not shown) [THEDA, N,N,N′,N′-Tetrakis(2-hydroxypropyl)ethylene-diamin]
